Among the data in PubChem BioAssay (NCI) are GI50 and TGI values, retold here.

SMILES strings stand for the structures.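 Results reflect a 48-hour exposure of cells in 96-well plates to compound at five concentrations. GI50: concentration for 50% inhibition of growth. TGI marks complete inhibition of growth.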

Among the test systems are K-562 leukemia; PC-3 prostate; UACC-257 melanoma; OVCAR-3 ovarian; HOP-62 NSCLC; RXF 393 renal; SN12C renal; ACHN renal; UO-31 renal; RPMI-8226 leukemia.
Common to all, as to experiment: NCI tumour cell line growth inhibition, 48 h

For `O=C(/C=C/c1cc(O)ccc1O)c1ccc(Cl)cc1`, the GI50 in the test with K-562 leukemia is 46.1 µM; with PC-3 prostate, 90.4 µM; with UACC-257 melanoma, 51.3 µM; in the test with OVCAR-3 ovarian, 57.7 µM; in the test on HOP-62 NSCLC, 20.5 µM; with RXF 393 renal, over 100 µM. For the same compound, the results for the GI50 with SN12C renal, in the test on ACHN renal and in the test with UO-31 renal were 18.1 µM, 25.2 µM and 96.7 µM, respectively. Besides, the TGI with K-562 leukemia is over 100 µM; in the test on PC-3 prostate, over 100 µM; in the test with UACC-257 melanoma it was over 100 µM; in the test on OVCAR-3 ovarian, over 100 µM; with HOP-62 NSCLC it was 52.2 µM; in the test on RXF 393 renal it was over 100 µM. For the same compound, the values for the TGI in the test with SN12C renal, in the test with ACHN renal and in the test with UO-31 renal were 44.7 µM, over 100 µM and over 100 µM, respectively.
`COc1ccc(-c2cncn2-c2ccc(-c3nc4cc(OC)c(OC)c(OC)c4s3)cc2)cc1N`: the GI50 in the test on K-562 leukemia was 3.38 µM; with PC-3 prostate it was 2.59 µM; with UACC-257 melanoma it was over 100 µM; with OVCAR-3 ovarian it was 5.18 µM; in the test on RXF 393 renal, 5.98 µM; in the test with SN12C renal it was 9.44 µM. The GI50 was 5.59 µM in the test on ACHN renal and 1.99 µM with UO-31 renal. Besides, the TGI in the test on K-562 leukemia, with PC-3 prostate, in the test on UACC-257 melanoma, in the test with OVCAR-3 ovarian, in the test on RXF 393 renal and with SN12C renal was over 100 µM throughout. Also, the values for the TGI with ACHN renal and in the test with UO-31 renal were over 100 µM and 7.57 µM, respectively.
For `Cc1cc(O)cc(-c2nn(C)cc2-c2cc(N3CCOCC3)nc(-c3cccnc3)n2)c1`, the GI50 is 1.96 µM with K-562 leukemia; 2.44 µM with PC-3 prostate; 2.84 µM in the test on RPMI-8226 leukemia; 13.4 µM in the test with UACC-257 melanoma; 2.48 µM in the test on OVCAR-3 ovarian; 1.7 µM in the test with RXF 393 renal. Moreover, the GI50 in the test on SN12C renal was 5.51 µM; in the test with ACHN renal, 3.68 µM; in the test on UO-31 renal, 3.44 µM. The TGI in the test with K-562 leukemia is over 100 µM; in the test with PC-3 prostate it was 17.2 µM; in the test on RPMI-8226 leukemia, 10.9 µM; with UACC-257 melanoma, 35.4 µM; in the test on OVCAR-3 ovarian, 12.5 µM; in the test on RXF 393 renal, 6.51 µM. Besides, the figures for the TGI with SN12C renal, in the test with ACHN renal and in the test with UO-31 renal were over 100 µM, 41.2 µM and 43.3 µM, respectively.
For `CCN1C(=O)N[C@H]2[C@@H]3NC(=O)c4ccc(Cl)n4[C@@H]3C[C@]21O`, the GI50 was 0.363 µM in the test with K-562 leukemia; 1.68 µM in the test on PC-3 prostate; 0.363 µM in the test on RPMI-8226 leukemia; 0.542 µM in the test on OVCAR-3 ovarian; 0.466 µM in the test on HOP-62 NSCLC; 0.333 µM with RXF 393 renal. Besides, the GI50 in the test with SN12C renal is 0.42 µM; with ACHN renal it was 1.5 µM; in the test on UO-31 renal, 3.19 µM. The TGI with K-562 leukemia was 5.09 µM; with PC-3 prostate, 11.2 µM; in the test on RPMI-8226 leukemia, 2.08 µM; in the test on OVCAR-3 ovarian, 10.3 µM; with HOP-62 NSCLC, 3.71 µM; in the test on RXF 393 renal it was 2.69 µM. Further, the TGI in the test with SN12C renal came to 9.13 µM; in the test with ACHN renal it was 12.4 µM; with UO-31 renal, 24.1 µM.
Consider `Clc1ccc2c(NCCNc3nc(N4CCCCC4)nc4ccccc34)ccnc2c1`, for which the GI50 in the test on PC-3 prostate is 3.17 µM; in the test with UACC-257 melanoma it was 1.94 µM; in the test with OVCAR-3 ovarian it was 1.75 µM; with HOP-62 NSCLC, 2.62 µM; with RXF 393 renal it was 1.81 µM; in the test with SN12C renal, 2.13 µM. In addition, the GI50 in the test with ACHN renal was 1.79 µM; in the test with UO-31 renal, 1.39 µM. The TGI in the test with PC-3 prostate worked out at 14.4 µM; with UACC-257 melanoma, 3.77 µM; in the test with OVCAR-3 ovarian, 3.65 µM; with HOP-62 NSCLC, 8.84 µM; with RXF 393 renal, 3.72 µM; in the test on SN12C renal, 6.84 µM. For the same compound, the results for the TGI in the test with ACHN renal and with UO-31 renal were 3.59 µM and 2.79 µM, respectively.
On to `CC(NNC(=S)N1CCN(c2ccccn2)CC1)c1cccc[n+]1[O-]` (stereo not drawn), for which the TGI in the test with PC-3 prostate, in the test with UACC-257 melanoma, in the test on OVCAR-3 ovarian, in the test on HOP-62 NSCLC, in the test on RXF 393 renal and in the test with SN12C renal was over 100 µM each time. The results for the TGI in the test with ACHN renal and in the test with UO-31 renal were over 100 µM and 82.3 µM, respectively.
Turning to `CCN1Cc2c(/C=C/c3ccccc3)nc3ccc(OC)cc3c2N(c2cccc(Cl)c2)C1`, the GI50 is 1.79 µM in the test with PC-3 prostate; 1.65 µM in the test on RPMI-8226 leukemia; 1.75 µM in the test with UACC-257 melanoma; 1.62 µM in the test on OVCAR-3 ovarian; 1.64 µM with HOP-62 NSCLC; 2.07 µM with RXF 393 renal. Also, the values for the GI50 in the test with SN12C renal, with ACHN renal and with UO-31 renal were 2.43 µM, 1.61 µM and 1.38 µM, respectively. Besides, the TGI in the test on PC-3 prostate was 5.64 µM; in the test on RPMI-8226 leukemia it was 4.71 µM; in the test on UACC-257 melanoma it was 4.22 µM; in the test on OVCAR-3 ovarian, 3.08 µM; with HOP-62 NSCLC it was 3.09 µM; in the test with RXF 393 renal, 3.69 µM. The TGI in the test on SN12C renal stood at 7.82 µM; in the test on ACHN renal, 3.08 µM; in the test on UO-31 renal, 2.95 µM.
As to `Cc1nc2sc(C(=O)Nc3cccc(Cl)c3C)c(N)c2cc1C(O)c1ccccc1` (stereo not drawn), the GI50 with K-562 leukemia is 0.0302 µM; with PC-3 prostate it was 0.0439 µM; in the test with RPMI-8226 leukemia, 0.0388 µM; in the test on UACC-257 melanoma, 1.27 µM; in the test with OVCAR-3 ovarian, 0.0351 µM; in the test on HOP-62 NSCLC it was 0.0497 µM. The results for the GI50 in the test with SN12C renal, in the test with ACHN renal and with UO-31 renal were 0.067 µM, 0.0881 µM and 0.0985 µM, respectively. The TGI in the test on K-562 leukemia is over 48.6 µM; in the test with PC-3 prostate, 24.4 µM; in the test with RPMI-8226 leukemia it was 3.05 µM; in the test on UACC-257 melanoma it was 22.9 µM; in the test with OVCAR-3 ovarian, 1.14 µM; in the test on HOP-62 NSCLC, 16.1 µM. In addition, the results for the TGI with SN12C renal, in the test with ACHN renal and in the test on UO-31 renal were 6.73 µM, 14.8 µM and 12.6 µM, respectively.
As for `COc1ccc(/C=C\c2cc(OC)c(OC)c(OC)c2)cc1N/C=C\C(=O)c1c[nH]c2ccccc12`, the GI50 with K-562 leukemia was under 0.01 µM; in the test with PC-3 prostate, under 0.01 µM; in the test on RPMI-8226 leukemia, under 0.01 µM; in the test on UACC-257 melanoma it was over 100 µM; in the test with OVCAR-3 ovarian it was under 0.01 µM; in the test on HOP-62 NSCLC, under 0.01 µM. The GI50 in the test on SN12C renal is 0.0224 µM; in the test on ACHN renal, under 0.01 µM; in the test on UO-31 renal, under 0.01 µM. The TGI in the test on K-562 leukemia is over 100 µM; in the test with PC-3 prostate, over 100 µM; in the test with RPMI-8226 leukemia, 19.6 µM; in the test on UACC-257 melanoma, over 100 µM; with OVCAR-3 ovarian, under 0.01 µM; with HOP-62 NSCLC it was over 100 µM. In addition, the TGI with SN12C renal, in the test on ACHN renal and in the test with UO-31 renal was over 100 µM each time.
